# Key:
# Format in all cases: cell-based
# [1] = system: Bacillus cereus; assay: Agar plate disc-diffusion, antibacterial inhibition zone; settings: nutrient agar, 37° C., 48 h
# Method: The agar plate disc-diffusion method was applied. […] The discs were then placed onto the surface of agar plates (nutrient agar for bacteria and Sabouraud's dextrose agar for fungi) seeded with the test organism. Each plate contained 15 mL of the agar medium, previously seeded with 0.2 mL of the broth culture of each organism pregrown for 18 hours. The plates were incubated at 37° C. for 48 h, and 72 h for fungi. The inhibition zones were measured in mm. Discs impregnated with DMSO were used as a control, and its inhibition zone was subtracted from the tested compound actual inhibition zone.
# (§1) The results of the antimicrobial testing can be observed in Tables 1 and 2, below, using ciprofloxacin as a reference.
# [2] = system: Escherichia coli; assay: as above; settings: nutrient agar, 37° C., 48 h
# Method: (§2) The agar plate disc-diffusion method was applied. Sterilized filter papers (6 mm in diameter) were wetted with 10 μL of a solution of N′-(2-(5-(4-chlorophenyl)-1,3,4-oxadiazol-2-ylthio)acetoxy)benzo[d][1,3]dioxole-5-carboximidamide (3) to be tested, […], and the discs were allowed to air dry. The discs were then placed onto the surface of agar plates (nutrient agar for bacteria and Sabouraud's dextrose agar for fungi) seeded with the test organism. Each plate contained 15 mL of the agar medium, previously seeded with 0.2 mL of the broth culture of each organism pregrown for 18 hours. The plates were incubated at 37° C. for 48 h, and 72 h for fungi. The inhibition zones were measured in mm. Discs impregnated with DMSO were used as a control, and its inhibition zone was subtracted from the tested compound actual inhibition zone.
# as §1
# [3] = system: Pseudomonas aeruginosa; assay: as above; settings: nutrient agar, 37° C., 48 h
# Method: as §2, §1
# [4] = system: Staphylococcus aureus; assay: as above; settings: nutrient agar, 37° C., 48 h
# Method: as §2, §1
# [5] = system: Aspergillus flavus; assay: Agar plate disc-diffusion, antifungal inhibition zone; settings: Sabouraud's dextrose agar, 72 h
# Method: The agar plate disc-diffusion method was applied. Sterilized filter papers (6 mm in diameter) were wetted with 10 μL of a solution of N′-(2-(5-(4-chlorophenyl)-1,3,4-oxadiazol-2-ylthio)acetoxy)benzo[d][1,3]dioxole-5-carboximidamide (3) to be tested, containing 10 mg/mL in DMSO, and the discs were allowed to air dry. The discs were then placed onto the surface of agar plates (nutrient agar for bacteria and Sabouraud's dextrose agar for fungi) seeded with the test organism. Each plate contained 15 mL of the agar medium, previously seeded with 0.2 mL of the broth culture of each organism pregrown for 18 hours. The plates were incubated at 37° C. for 48 h, and 72 h for fungi. The inhibition zones were measured in mm. Discs impregnated with DMSO were used as a control, and its inhibition zone was subtracted from the tested compound actual inhibition zone.
# as §1
# [6] = system: Chrysosporium keratinophilum; assay: as above; settings: Sabouraud's dextrose agar, 72 h
# Method: as §2, §1
# [7] = A = concentration of comp. = 10,000 μL
# [8] = B = concentration of comp. = 30.000 μL
# [9] = C = concentration of comp. = 50,000 μL
smiles,measurement,setting,value
"N/C(=N\OC(=O)CSc1nnc(-c2ccc(Cl)cc2)o1)c1ccc2c(c1)OCO2 [Compound 3, N′-(2-(5-(4-chlorophenyl)-1,3,4-oxadiazol-2-ylthio)acetoxy)benzo[d][1,3]dioxole-5-carboximidamide]","inhibition zone, Bacillus Cereus, A",[1]; [7],23 mm
same,"inhibition zone, Bacillus Cereus, B",[1]; [8],28 mm
same,"inhibition zone, Bacillus Cereus, C",[1]; [9],37 mm
same,"inhibition zone, Escherichia coli, A",[2]; [7],25 mm
same,"inhibition zone, Escherichia coli, B",[2]; [8],30 mm
same,"inhibition zone, Escherichia coli, C",[2]; [9],43 mm
same,"inhibition zone, Pseudomonas aeruginosa, A",[3]; [7],22 mm
same,"inhibition zone, Pseudomonas aeruginosa, B",[3]; [8],25 mm
same,"inhibition zone, Pseudomonas aeruginosa, C",[3]; [9],32 mm
same,"inhibition zone, Staphylococcus aureus, A",[4]; [7],25 mm
same,"inhibition zone, Staphylococcus aureus, B",[4]; [8],31 mm
same,"inhibition zone, Staphylococcus aureus, C",[4]; [9],40 mm
same,"inhibition zone, Aspergillus flavus, A",[5]; [7],25 mm
same,"inhibition zone, Aspergillus flavus, B",[5]; [8],28 mm
same,"inhibition zone, Aspergillus flavus, C",[5]; [9],38 mm
same,"inhibition zone, Chrysosporium keratinophilum, A",[6]; [7],24 mm
same,"inhibition zone, Chrysosporium keratinophilum, B",[6]; [8],29 mm
same,"inhibition zone, Chrysosporium keratinophilum, C",[6]; [9],45 mm

# From US11926621B1, “N′-(2-(5-(4-chlorophenyl)-1,3,4-oxadiazol-2-ylthio)acetoxy)benzo[d][1,3]dioxole-5-carboximidamide as an antimicrobial compound” (KING FAISAL UNIVERSITY, priority 2023, dated 2024)
